From US12649750B2, “Macrocyclic compounds, compositions, and methods of using thereof” (Sionna Therapeutics Inc., priority 2022, dated 2026)

Assays:
NBD1 = target: T1, NBD1 (Homo sapiens, UniProt P13569); assay: Aggregation analysis using differential static light scattering (DSLS), thermal stability of NBD1 (ΔTagg); type: binding; conditions: ΔTagg versus DMSO control, NBD1 0.2 mg/ml
T1 construct: Purified recombinant NBD1 was produced using previously described methods; made in house
Method in brief: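 Thermal aggregation of purified NBD1 was followed by static light scattering during a 1° C./min ramp to 70° C. Protein was at 0.2 mg/ml with 2 mM ATP at pH7.6. Each compound's Tagg was referenced to DMSO controls.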

CFTR = target: T2, CFTR (Homo sapiens, UniProt P13569, DEL508-508); assay: TECC24 AUC fold over DMSO @10 μM, CFTR-mediated transepithelial chloride transport in CF-HBE cells; type: cell-based; conditions: test agent AUC divided by DMSO vehicle AUC, primary CF-HBE cells, ΔF508 homozygous donor, 48 hours incubation
T2 construct: Primary human bronchial epithelial cells from a ΔF508 homozygous CF donor; host or cells: primary human bronchial epithelial cells (CF-HBE), ΔF508 homozygous donor
Method in brief: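 Value is ratio of test-agent to DMSO AUC of equivalent transepithelial Cl− current, integrated from forskolin (10 μM) stimulation to CFTR inhibitor-172 (20 μM) block, with benzamil 10 μM present. CF-HBE (ΔF508/ΔF508) cultures had 48 h compound exposure at 10 μM, 36.5° C before recording.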

T2 sequence (P13569 with tags, fused parts or gaps DEL508-508): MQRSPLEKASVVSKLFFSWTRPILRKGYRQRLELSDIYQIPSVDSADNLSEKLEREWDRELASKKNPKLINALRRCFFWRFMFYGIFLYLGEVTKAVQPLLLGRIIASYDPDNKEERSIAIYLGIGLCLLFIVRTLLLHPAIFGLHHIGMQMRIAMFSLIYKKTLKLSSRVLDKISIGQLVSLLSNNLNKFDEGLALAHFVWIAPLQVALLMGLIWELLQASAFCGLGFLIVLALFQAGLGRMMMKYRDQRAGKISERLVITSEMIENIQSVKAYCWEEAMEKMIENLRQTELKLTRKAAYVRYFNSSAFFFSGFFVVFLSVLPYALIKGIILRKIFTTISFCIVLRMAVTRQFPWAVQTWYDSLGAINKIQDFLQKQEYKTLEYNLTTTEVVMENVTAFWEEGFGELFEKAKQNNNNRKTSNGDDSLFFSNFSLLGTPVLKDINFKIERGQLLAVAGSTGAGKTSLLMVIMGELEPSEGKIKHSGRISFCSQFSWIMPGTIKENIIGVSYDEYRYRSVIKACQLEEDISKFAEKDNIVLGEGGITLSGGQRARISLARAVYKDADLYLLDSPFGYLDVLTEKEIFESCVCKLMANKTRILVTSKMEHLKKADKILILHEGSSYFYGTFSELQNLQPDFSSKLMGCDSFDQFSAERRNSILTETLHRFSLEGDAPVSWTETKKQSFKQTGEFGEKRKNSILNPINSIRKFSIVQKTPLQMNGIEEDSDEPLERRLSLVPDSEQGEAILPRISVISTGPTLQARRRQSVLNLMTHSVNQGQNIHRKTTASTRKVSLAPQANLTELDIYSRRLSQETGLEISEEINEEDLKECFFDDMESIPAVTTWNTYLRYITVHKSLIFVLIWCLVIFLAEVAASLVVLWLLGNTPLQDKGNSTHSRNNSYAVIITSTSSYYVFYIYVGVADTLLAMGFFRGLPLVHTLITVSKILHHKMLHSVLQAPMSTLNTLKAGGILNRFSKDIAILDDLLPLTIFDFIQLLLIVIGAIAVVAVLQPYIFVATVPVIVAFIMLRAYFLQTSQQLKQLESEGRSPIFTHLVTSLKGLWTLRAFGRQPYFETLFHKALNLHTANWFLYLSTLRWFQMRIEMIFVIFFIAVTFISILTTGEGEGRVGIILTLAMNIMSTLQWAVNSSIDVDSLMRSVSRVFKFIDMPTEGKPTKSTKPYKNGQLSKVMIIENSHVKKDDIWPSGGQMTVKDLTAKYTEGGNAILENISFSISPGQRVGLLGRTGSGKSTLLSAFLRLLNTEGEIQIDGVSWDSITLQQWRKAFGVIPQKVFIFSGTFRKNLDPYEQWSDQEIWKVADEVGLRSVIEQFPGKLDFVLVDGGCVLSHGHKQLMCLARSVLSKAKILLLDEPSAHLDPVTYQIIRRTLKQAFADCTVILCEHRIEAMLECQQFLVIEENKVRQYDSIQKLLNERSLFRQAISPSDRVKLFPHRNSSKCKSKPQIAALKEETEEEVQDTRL
T1 sequence (P13569 423-646 limits assumed): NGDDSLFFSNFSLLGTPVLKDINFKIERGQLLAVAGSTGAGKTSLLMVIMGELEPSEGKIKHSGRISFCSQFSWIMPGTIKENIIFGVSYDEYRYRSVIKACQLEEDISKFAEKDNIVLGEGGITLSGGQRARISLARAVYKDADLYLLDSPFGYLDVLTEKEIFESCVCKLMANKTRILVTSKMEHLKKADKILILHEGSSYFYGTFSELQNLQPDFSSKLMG

## Cn1nc2nc1-c1cc(ccc1F)C(O)c1c(F)cc3[nH]ccc3c1CCS(=O)(=O)CC(C)(C)CCCC2(C)c1cccc(CCC(=O)O)c1 (single isomer, unassigned) [Compound 30A, 3-[3-(22,28-difluoro-24-hydroxy-3,6,10,10-tetramethyl-12,12-dioxo-12lambda6-thia-3,4,19,30-tetrazapentacyclo[23.3.1.12,5.015,23.016,20]triaconta-1(29),2(30),4,15,17,20,22,25,27-nonaen-6-yl)phenyl]propanoic acid]
NBD1
  DSLS 3D (100 μM ΔT): C (a value greater than 10 °C and less than or equal to 25 °C is marked “C”)
CFTR
  TECC (AUC, 10 μM): C (a value between 20 and 80 is marked “C”)

## Cn1nc2nc1-c1cc(ccc1F)C(O)c1c(F)cc3[nH]ccc3c1CCS(=O)(=O)CC(C)(C)CCCC2(C)c1cccc(CCC(=O)O)c1 (single isomer, unassigned) [Compound 30B, 3-[3-(22,28-difluoro-24-hydroxy-3,6,10,10-tetramethyl-12,12-dioxo-12lambda6-thia-3,4,19,30-tetrazapentacyclo[23.3.1.12,5.015,23.016,20]triaconta-1(29),2(30),4,15,17,20,22,25,27-nonaen-6-yl)phenyl]propanoic acid]
NBD1
  DSLS 3D (100 μM ΔT): B (a value above 5 °C and less than or equal to 10 °C is marked “B”)
CFTR
  TECC (AUC, 10 μM): B (a value between 12-20 is marked “B”)

## Cn1nc2nc1-c1cc(ccc1F)C(O)c1c(F)cc3[nH]ccc3c1CCS(=O)(=O)CC(C)(C)CCCC2(C)c1cccc(CCC(=O)O)c1 (single isomer, unassigned) [Compound 30C, 3-[3-(22,28-difluoro-24-hydroxy-3,6,10,10-tetramethyl-12,12-dioxo-12lambda6-thia-3,4,19,30-tetrazapentacyclo[23.3.1.12,5.015,23.016,20]triaconta-1(29),2(30),4,15,17,20,22,25,27-nonaen-6-yl)phenyl]propanoic acid]
NBD1
  DSLS 3D (100 μM ΔT): B (a value above 5 °C and less than or equal to 10 °C is marked “B”)
CFTR
  TECC (AUC, 10 μM): C (a value between 20 and 80 is marked “C”)

## Cn1nc2nc1-c1cc(ccc1F)C(O)c1c(F)cc3[nH]ccc3c1CCS(=O)(=O)CC(C)(C)CCCC2(C)c1cccc(CCC(=O)O)c1 (single isomer, unassigned) [Compound 30D, 3-[3-(22,28-difluoro-24-hydroxy-3,6,10,10-tetramethyl-12,12-dioxo-12lambda6-thia-3,4,19,30-tetrazapentacyclo[23.3.1.12,5.015,23.016,20]triaconta-1(29),2(30),4,15,17,20,22,25,27-nonaen-6-yl)phenyl]propanoic acid]
NBD1
  DSLS 3D (100 μM ΔT): C (a value greater than 10 °C and less than or equal to 25 °C is marked “C”)
CFTR
  TECC (AUC, 10 μM): A (a TECC value less than 12 is marked “A”)

## COC(=O)CCc1cccc(C2(C)CCCC(C)(C)CS(=O)(=O)CCc3c(c(F)cc4[nH]ccc34)C(=O)c3ccc(F)c(c3)-c3nc2nn3C)c1 (single isomer, unassigned) [Compound 31A, methyl 3-[3-[22,28-difluoro-3,6,10,10-tetramethyl-12,12,24-trioxo-12lambda6-thia-3,4,19,30-tetrazapentacyclo[23.3.1.12,5.015,23.016,20]triaconta-1(29),2(30),4,15,17,20,22,25,27-nonaen-6-yl]phenyl]propanoate]
NBD1
  DSLS 3D (100 μM ΔT): B (a value above 5 °C and less than or equal to 10 °C is marked “B”)
CFTR
  TECC (AUC, 10 μM): C (a value between 20 and 80 is marked “C”)

## COC(=O)CCc1cccc(C2(C)CCCC(C)(C)CS(=O)(=O)CCc3c(c(F)cc4[nH]ccc34)C(=O)c3ccc(F)c(c3)-c3nc2nn3C)c1 (single isomer, unassigned) [Compound 31B, methyl 3-[3-[22,28-difluoro-3,6,10,10-tetramethyl-12,12,24-trioxo-12lambda6-thia-3,4,19,30-tetrazapentacyclo[23.3.1.12,5.015,23.016,20]triaconta-1(29),2(30),4,15,17,20,22,25,27-nonaen-6-yl]phenyl]propanoate]
NBD1
  DSLS 3D (100 μM ΔT): A (an ΔTagg value less than or equal to 5 °C is marked “A”)
CFTR
  TECC (AUC, 10 μM): B (a value between 12-20 is marked “B”)

## Cn1nc2nc1-c1cc(ccc1F)C(=O)c1c(F)cc3[nH]ccc3c1CCS(=O)(=O)CC(C)(C)CCCC2(C)c1cccc(CCC(=O)O)c1 (single isomer, unassigned) [Compound 31C, 3-[3-[22,28-difluoro-3,6,10,10-tetramethyl-12,12,24-trioxo-12lambda6-thia-3,4,19,30-tetrazapentacyclo[23.3.1.12,5.015,23.016,20]triaconta-1(29),2(30),4,15,17,20,22,25,27-nonaen-6-yl]phenyl]propanoic Acid]
NBD1
  DSLS 3D (100 μM ΔT): C (a value greater than 10 °C and less than or equal to 25 °C is marked “C”)
CFTR
  TECC (AUC, 10 μM): C (a value between 20 and 80 is marked “C”)

## Cn1nc2nc1-c1cc(ccc1F)C(=O)c1c(F)cc3[nH]ccc3c1CCS(=O)(=O)CC(C)(C)CCCC2(C)c1cccc(CCC(=O)O)c1 (single isomer, unassigned) [Compound 31D, 3-[3-[22,28-difluoro-3,6,10,10-tetramethyl-12,12,24-trioxo-12lambda6-thia-3,4,19,30-tetrazapentacyclo[23.3.1.12,5.015,23.016,20]triaconta-1(29),2(30),4,15,17,20,22,25,27-nonaen-6-yl]phenyl]propanoic acid]
NBD1
  DSLS 3D (100 μM ΔT): A (an ΔTagg value less than or equal to 5 °C is marked “A”)
CFTR
  TECC (AUC, 10 μM): C (a value between 20 and 80 is marked “C”)

## Cn1nc2nc1-c1cc(ccc1F)Cc1c(F)cc3[nH]ccc3c1CCS(=O)(=O)CC(C)(C)CCCC2(C)c1cccc(CCC(=O)O)c1 (single isomer, unassigned) [Compound 32A, 3-[3-(22,28-Difluoro-3,6,10,10-tetramethyl-12,12-dioxo-12lambda6-thia-3,4,19,30-tetrazapentacyclo[23.3.1.12,5.015,23.016,20]triaconta-1(29),2(30),4,15,17,20,22,25,27-nonaen-6-yl)phenyl]propanoic Acid]
NBD1
  DSLS 3D (100 μM ΔT): A (an ΔTagg value less than or equal to 5 °C is marked “A”)
CFTR
  TECC (AUC, 10 μM): A (a TECC value less than 12 is marked “A”)

## Cn1nc2nc1-c1cc(ccc1F)Cc1c(F)cc3[nH]ccc3c1CCS(=O)(=O)CC(C)(C)CCCC2(C)c1cccc(CCC(=O)O)c1 (single isomer, unassigned) [Compound 32B, 3-[3-(22,28-Difluoro-3,6,10,10-tetramethyl-12,12-dioxo-12lambda6-thia-3,4,19,30-tetrazapentacyclo[23.3.1.12,5.015,23.016,20]triaconta-1(29),2(30),4,15,17,20,22,25,27-nonaen-6-yl)phenyl]propanoic Acid]
NBD1
  DSLS 3D (100 μM ΔT): C (a value greater than 10 °C and less than or equal to 25 °C is marked “C”)
CFTR
  TECC (AUC, 10 μM): C (a value between 20 and 80 is marked “C”)

## CC(Cc1cccc(C2(C)CCCC(C)(C)CS(=O)(=O)CCc3c(c(F)cc4[nH]ccc34)Sc3ccc(F)c(c3)-c3nc2nn3C)c1)C(=O)O (single isomer, unassigned) [Compound 33A, 3-[3-(22,28-difluoro-3,6,10,10-tetramethyl-12,12-dioxo-12lambda6,24-dithia-3,4,19,30-tetrazapentacyclo[23.3.1.12,5.015,23.016,20]triaconta-1(29),2(30),4,15,17,20,22,25,27-nonaen-6-yl)phenyl]-2-methyl-propanoic Acid]
NBD1
  DSLS 3D (100 μM ΔT): C (a value greater than 10 °C and less than or equal to 25 °C is marked “C”)
CFTR
  TECC (AUC, 10 μM): C (a value between 20 and 80 is marked “C”)

## CC(Cc1cccc(C2(C)CCCC(C)(C)CS(=O)(=O)CCc3c(c(F)cc4[nH]ccc34)Sc3ccc(F)c(c3)-c3nc2nn3C)c1)C(=O)O (single isomer, unassigned) [Compound 33B, 3-[3-(22,28-difluoro-3,6,10,10-tetramethyl-12,12-dioxo-12lambda6,24-dithia-3,4,19,30-tetrazapentacyclo[23.3.1.12,5.015,23.016,20]triaconta-1(29),2(30),4,15,17,20,22,25,27-nonaen-6-yl)phenyl]-2-methyl-propanoic Acid]
NBD1
  DSLS 3D (100 μM ΔT): B (a value above 5 °C and less than or equal to 10 °C is marked “B”)
CFTR
  TECC (AUC, 10 μM): A (a TECC value less than 12 is marked “A”)

## CC(Cc1cccc(C2(C)CCCC(C)(C)CS(=O)(=O)CCc3c(c(F)cc4[nH]ccc34)S(=O)(=O)c3ccc(F)c(c3)-c3nc2nn3C)c1)C(=O)O (single isomer, unassigned) [Compound 34A, 3-[3-(22,28-difluoro-3,6,10,10-tetramethyl-12,12,24,24-tetraoxo-12lambda6,24lambda6-dithia-3,4,19,30-tetrazapentacyclo[23.3.1.12,5.015,23.016,20]triaconta-1(29),2(30),4,15,17,20,22,25,27-nonaen-6-yl)phenyl]-2-methyl-propanoic Acid]
NBD1
  DSLS 3D (100 μM ΔT): C (a value greater than 10 °C and less than or equal to 25 °C is marked “C”)
CFTR
  TECC (AUC, 10 μM): C (a value between 20 and 80 is marked “C”)
